In patent US20180050029A1, “SELECTIVE CONNEXIN HEMICHANNELS BLOCKERS FOR THE TREATMENT OF EPILEPSY” (PONTIFICIA UNIVERSIDAD CATÓLICA DE CHILE, priority 2015, published 2018):
Where “and” joins values, the source holds several entries; their conditions need not be identical. Equal values may be shown once. Entries after “also recorded” stand apart in the source; their conditions may differ.

Assays:
[1] = test system: hemichannels and channels formed by connexins and pannexins; test: Ethidium uptake in brain slices of PTZ-treated mice, slices treated with Cbx; type: cell-based; conditions: for PTZ-induced ethidium uptake: 20 min on slices, astrocytes, oligodendrocytes and neurons
Experimental: Adult male mice at 2 months were injected intraperitoneally with PTZ (70 mg/kg) or PBS as a control. After 30 min post injection of the treatment, the action of Cbx at two concentrations was evaluate, 10 μM to block pannexin hemichannels and 100 μM to block both connexin and pannexin-based channels. The mice were sacrificed to extract the brains and obtain coronal slices 400 μm thick. The slices, once stabilized, were treated with Cbx for 20 min and then incubated with the ethidium bromide dye (4 μM) for 10 minutes. Thereafter, the slices were fixed and the immunofluorescence staining process was continued as described above. The mean data of ethidium uptake was normalized to the control condition (dotted line) of each cell type. […] The results obtained were expressed as the mean±SEM. Samples were determined using the Student's t-test (*p<0.05).

C57B/6 mice = test: Toxicity or lethality of molecule D4, supervision protocol; type: in vivo; conditions: 0.2, 2, 20, 200, 2000 mg/kg i.p.
Experimental: To evaluate the toxicity or lethality of the molecule D4, Two-month adult mice were injected intraperitoneally in increasing doses (0.2; 2; 20; 200; 2000 mg/kg mouse weight) and were left under observation for 72 hours. After the observation time, the behavioral and physiological aspects of the animals were evaluated based on the Protocol of Supervision according to the Bioethics and Biosafety guidelines of the Faculty of Biological Sciences of the Pontificia Universidad Catolica de Chile that rules in the laboratory. The variables considered included physiological data (weight loss), appearance (posture) and spontaneous behavior (attitude to stimulation). […] In addition, mortality was zero at all concentrations evaluated. The evaluation of mortality of the molecule D4 as an anticonvulsant drug administered in mice prior to the induction of epilepsy with PTZ was zero (Table 3).
Measurements are performed by trained personnel, who know the basal or usual behavior of the animals under study.

[2] = test system: connexin hemichannels in brain cells; test: Ethidium uptake in brain slices of mice pretreated with D4 before PTZ; type: in vivo; conditions: D4 2 mg/kg i.p. six and one hour before PTZ (70 mg/kg), 30 min post PTZ; microglia, astrocytes and neurons
Experimental: Immunofluorescence and visualization in confocal microscopy identified cell types.
The mean data from ethidium uptake was normalized to the control condition (see FIG. 5, dotted line) of each cell type. […] The results obtained were expressed as the mean±SEM. Samples were determined using the Student's t-test (*p<0.05).

[3] = test system: PTZ-induced seizures in C57BL/6 mice; test: PTZ-induced seizures and mortality, anticonvulsant pretreatment; conditions: for Animal Mortality: dead/total animals
adult C57BL/6 mice = test: PTZ dose response, epileptogenic episodes and mortality in mice; type: in vivo; conditions: for Mortality: dead/total animals
Experimental: As epileptogenic agent, we used PTZ (Pentylenetetrazole), a GABAA receptor inhibitor widely used in the study and development of anticonvulsant drugs.
To determine the effective dose, a dose response curve was performed based on the available literature. […]

[4] = test system: connexin hemichannels in brain cells; test: Ethidium uptake in brain slices of PTZ-treated mice (time course); type: in vivo; conditions: PTZ 70 mg/kg i.p.
Experimental: Adult male mice of 2 months were injected via i.p. with PTZ (70 mg/kg) or phosphate buffered saline (PBS) as a control. Mice were sacrificed after 10, 20 and 30 min post-treatment to extract the brains and generate coronal slices of 400 μm thick using a vibratome. The slices were stabilized for 1 h prior to dye uptake, immersed in ACSF (artificial cerebrospinal fluid), bubbled with 95% O2 and 5% CO2 and at room temperature. Brain slices were incubated with the ethidium bromide dye (Etd, 4 μM) for 10 minutes. Subsequently, the slices were washed and fixed for 1 h with paraformaldehyde (4%). The brain slices were incubated for 40 min with blocking solution (PBS, 0.2% gelatine, 1% triton). Subsequently, the samples were incubated overnight at 4° C. with the primary antibody against molecular markers of the different cell types: anti-mast cell “Transmembrane tyrosine kinase” receptor CD117 (CD117); Integrin αM anti-microglia (CD11b); anti-astrocytes “glial fibrillary acidic protein” (GFAP); anti-oligodendrocytes “proteolipid protein” (PLP) and anti-neuronal neuron-market (NeuN). After washing with PBS (phosphate buffered saline), they were incubated with the Cy2-conjugated secondary antibody for 2 hours at room temperature and avoiding light.
Finally, the brain slices were washed and mounted on Flouromount G mounting medium and observed directly by the laser-scanning confocal microscope (Nikon Eclipse Ti). Consecutive images were taken with 40× target at 1 μm intervals sequentially with two lasers (Argon, 488 nm and Helium/Neon, 543 nm). In FIG. 1, representative images of mast cells (1.A, C), microglia (1.E, F), astrocytes (1.1, K), oligodendrocytes (1.M, O) and neurons (1.Q, S) and Etd-uptake of PTZ-induced control mice and mice (1.B, D, 1.F, H, 1.J, L, 1.N, P, 1.R, T).
The mean data of ethidium uptake was normalized to the control condition (dotted line) of each cell type. […] The results obtained were expressed as the mean±SEM. Samples were determined using the Student's t-test (*p<0.05).

glial hemichannels = test: Application of PTZ to brain slices; type: cell-based; conditions: PTZ applied to brain slices
[5] = PTZ (70 mg/kg) without molecule D4

## CC1(C)[C@@H](OC(=O)CCC(=O)O)CC[C@]2(C)[C@H]3C(=O)C=C4[C@@H]5C[C@@](C)(C(=O)O)CC[C@]5(C)CC[C@@]4(C)[C@]3(C)CC[C@@H]12 [Carbenoxolone, carbenoxolone]
[1]; Cbx 10 μM
  PTZ-induced ethidium uptake: block the uptake of ethidium
[1]; Cbx 100 μM
  PTZ-induced ethidium uptake: block the uptake of ethidium
[1]; FIG. 3 legend, macroglia and neurons
  PTZ-induced hemichannel and channel activity: blocks hemispheric activity formed by PTZ-induced connexins and channels

## O=C(OC(C(=O)c1ccc(Cl)cc1)c1ccccc1)c1ccc2ccccc2n1 (centres unmarked) [Molecule D4, 2-(4-chlorophenyl)-2-oxo-1-phenylethyl quinoline-2-carboxylate]
C57B/6 mice; 72 hours observation
  Mortality: zero
C57B/6 mice; 72 hours observation, 2000 mg/kg
  observable side effects: no observed side effects; also recorded: no observable side effects
C57B/6 mice; 72 hours, score 0-3 is normal
  supervision protocol score (weight loss, posture, spontaneous behavior): zero
[2]
  PTZ-induced hemichannel activity (ethidium uptake): blocks the activity of hemichannels formed by PTZ-induced connexin in brain cells; also recorded: not positive to Etd; also recorded: blocks PTZ-induced hemichannel activity and basal activation
[3]; Molecule D4 (2 mg/kg) prior to PTZ (70 mg/kg)
  Animal Mortality: zero

## C1CCc2nnnn2CC1 [PTZ, Pentylenetetrazole]
Adult C57BL/6 mice; PTZ 65 mg/kg i.p. single dose
  % Mortality: 0%
  Eliptogenic Episode: No
  Mortality: 0/3
Adult C57BL/6 mice; PTZ 70 mg/kg i.p. single dose
  % Mortality: 20%
  Eliptogenic Episode: induces convulsions and Yes
  Mortality: without being lethal and 3/15
Adult C57BL/6 mice; PTZ 75 mg/kg i.p. single dose
  % Mortality: 50%
  Eliptogenic Episode: Yes
  Mortality: 2/4
Adult C57BL/6 mice; PTZ 80 mg/kg i.p. single dose
  % Mortality: 100%
  Eliptogenic Episode: Yes
  Mortality: 3/3
Adult C57BL/6 mice; PTZ 90 mg/kg i.p. single dose
  % Mortality: 100%
  Eliptogenic Episode: Yes
  Mortality: 3/3
Adult C57BL/6 mice; PTZ-treated mice
  time to develop seizures post-administration: ≤ 10 min
Adult C57BL/6 mice; PTZ-treated mice, period of several hours
  behaviour in the hours after the seizures: very low motor activity and sporadic contractions
Adult C57BL/6 mice; higher doses (>100 mg/kg)
  epileptogenic episodes: induce epileptogenic episodes
Adult C57BL/6 mice; higher doses (>100 mg/kg), at 5 min after administration
  mortality rate: 100%
Adult C57BL/6 mice; lower dose (<65 mg/kg)
  epileptogenic episodes: does not induce evident epileptogenic episodes
[4]; versus control mice
  hemichannel activity (ethidium uptake) in brain slices: induces activity of connexin hemichannels in brain cells; also recorded: positive for high activity of hemichannels; also recorded: positive for Etd fluorescence
[4]; astrocytes and oligodendrocytes, first (FIG. 2.A)
  hemichannel activity (ethidium uptake normalized to control): increases the activity of the hemichannels
[4]; mast cells, microglia and neurons, after 30 min (FIG. 2.B and C)
  hemichannel activity (ethidium uptake normalized to control): increases the activity of the hemichannels
Glial hemichannels
  opening of glial hemichannels: induced the opening of glial hemichannels
[3]; [5]
  % Mortality: 20%
  Animal Mortality: 3/15

## O=C1NC(=O)C(c2ccccc2)(c2ccccc2)N1 [phenytoin, Phenytoin]
[3]; phenytoin treatment, after 10 minutes of treatment
  prevention of PTZ-induced seizures: does not prevent PTZ-induced seizures
